Data: publication PMC7023430, “4-Aminobenzoic Acid Derivatives: Converting Folate Precursor to Antimicrobial and Cytotoxic Agents” (Biomolecules, 2019)
Converted amounts (≈) assume the structure as drawn. Like-named read-outs stand apart in the source and are kept apart here.

Legend:
[1] = tested on: Staphylococcus aureus ATCC 29213, CCM 4223; assay: Antibacterial microdilution broth method, S. aureus; format: cell-based
[2] = tested on: methicillin-resistant Staphylococcus aureus ATCC 43300, CCM 4750 (MRSA); assay: Antibacterial microdilution broth method, MRSA; format: cell-based; conditions: Staphylococcus aureus
[3] = tested on: Enterococcus faecalis ATCC 29212, CCM 4224; assay: Antibacterial microdilution broth method, E. faecalis; format: cell-based; conditions: Enterococcus faecalis
[4] = tested on: Escherichia coli ATCC 25922, CCM 3954; assay: Antibacterial microdilution broth method, E. coli; format: cell-based; conditions: Escherichia coli
[5] = tested on: Pseudomonas aeruginosa ATCC 27853, CCM 3955; assay: Antibacterial microdilution broth method, P. aeruginosa; format: cell-based; conditions: Pseudomonas aeruginosa, P. aeruginosa
[6] = tested on: Mycobacterium avium 330/88; assay: Antimycobacterial micromethod in Šula's medium, M. avium; format: cell-based
[7] = tested on: Mycobacterium kansasii 235/80; assay: Antimycobacterial micromethod in Šula's medium, M. kansasii 235/80; format: cell-based
[8] = tested on: M. kansasii 6509/96 (clinical isolate); assay: Antimycobacterial micromethod in Šula's medium, M. kansasii 6509/96; format: cell-based; conditions: Mycobacterium kansasii
Candida tropicalis 156 = assay: Antifungal microdilution broth method, C. tropicalis; format: cell-based
Summary of the method: (§1)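 MIC by visual endpoint reading after twofold serial dilution of DMSO-dissolved compounds in RPMI-1640 (L-glutamine, 2% glucose, pH 7.0 with MOPS). Method follows EUCAST instructions, slightly modified; duplicates required agreement within one dilution step.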

Candida krusei E28 = assay: Antifungal microdilution broth method, C. krusei; format: cell-based; conditions: Pichia kudriavzevii
Summary of the method: as §1

Candida glabrata 20/I = assay: Antifungal microdilution broth method, C. glabrata; format: cell-based; conditions: Nakaseomyces glabratus
Summary of the method: as §1

Trichosporon asahii 1188 = assay: Antifungal microdilution broth method, T. asahii; format: cell-based
Summary of the method: as §1

[9] = tested on: Aspergillus fumigatus 231; assay: Antifungal microdilution broth method, A. fumigatus; format: cell-based
Summary of the method: as §1

[10] = tested on: Lichtheimia corymbifera 272; assay: Antifungal microdilution broth method, L. corymbifera; format: cell-based
Summary of the method: as §1

HepG2 cells = assay: Cytotoxicity, CellTiter 96 assay; format: cell-based, human; conditions: Homo sapiens, HepG2, 24 h, 24 h incubation
Summary of the method: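 HepG2 cells (10,000/well) exposed 24 h at 37 °C, 5% CO2 to compounds in DMSO (≤1% v/v final), triplicates. Viability by tetrazolium-to-formazan reduction (CellTiter 96 AQueous One), absorbance 490 nm after 2 h. IC50 from nonlinear regression versus untreated controls; 10% DMSO defined 0% viability.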

[11] = tested on: ESBL-positive Klebsiella pneumoniae J 14368/08
[12] = 24 h incubation, read-out: MIC SA 24 h
[13] = 48 h incubation, read-out: MIC SA 48 h
[14] = 24 h incubation, read-out: MIC MRSA 24 h
[15] = 48 h incubation, read-out: MIC MRSA 48 h
[16] = 24 h incubation, read-out: MIC EF 24 h
[17] = 48 h incubation, read-out: MIC EF 48 h
[18] = 24 h incubation, read-out: MIC EC 24 h
[19] = 48 h incubation, read-out: MIC EC 48 h
[20] = 24 h incubation, read-out: MIC PA 24 h
[21] = 48 h incubation, read-out: MIC PA 48 h
[22] = 330/88, 336 h, 14 days incubation at 37 °C, read-out: MIC M. avium 330/88 14 d
[23] = 330/88, 504 h, 21 days incubation at 37 °C, read-out: MIC M. avium 330/88 21 d
[24] = 235/80, 168 h, 7 days incubation at 37 °C, read-out: MIC M. kansasii 235/80 7 d
[25] = 235/80, 336 h, 14 days incubation at 37 °C, read-out: MIC M. kansasii 235/80 14 d
[26] = 235/80, 504 h, 21 days incubation at 37 °C, read-out: MIC M. kansasii 235/80 21 d
[27] = 168 h, 7 days incubation at 37 °C, read-out: MIC M. kansasii 6509/96 7 d
[28] = 336 h, 14 days incubation at 37 °C, read-out: MIC M. kansasii 6509/96 14 d
[29] = 504 h, 21 days incubation at 37 °C, read-out: MIC M. kansasii 6509/96 21 d

SMILES: CC(C)(C)c1ccc(O)c(C=Nc2ccc(C(=O)O)cc2)c1 [1j, 4-{[5-(Tert-butyl)-2-hydroxybenzylidene]amino}benzoic acid]
- MIC [1, 12]: > 500 µM
- MIC [1, 13]: > 500 µM
- MIC [2, 14]: > 500 µM
- MIC [2, 15]: > 500 µM
- MIC [3, 16]: > 500 µM
- MIC [3, 17]: > 500 µM
- MIC [4, 18]: > 500 µM
- MIC [4, 19]: > 500 µM
- MIC [5, 20]: > 500 µM
- MIC [5, 21]: > 500 µM
- MIC [6, 22]: 1000 µM (≈ 297 µg/mL)
- MIC [6, 23]: > 1000 µM
- MIC [7, 24]: 125 µM (≈ 37.2 µg/mL)
- MIC [7, 25]: 125 µM (≈ 37.2 µg/mL)
- MIC [7, 26]: 250 µM (≈ 74.3 µg/mL)
- MIC [8, 27]: 250 µM (≈ 74.3 µg/mL)
- MIC [8, 28]: 250 µM (≈ 74.3 µg/mL)
- MIC [8, 29]: 500 µM (≈ 149 µg/mL)
- MIC (Candida tropicalis 156; 24 h, read-out: MIC CT 24 h): > 500 µM
- MIC (Candida tropicalis 156; 48 h, read-out: MIC CT 48 h): > 500 µM
- MIC (Candida krusei E28; 24 h, read-out: MIC CK 24 h): > 500 µM
- MIC (Candida krusei E28; 48 h, read-out: MIC CK 48 h): > 500 µM
- MIC (Candida glabrata 20/I; 24 h, read-out: MIC CG 24 h): > 500 µM
- MIC (Candida glabrata 20/I; 48 h, read-out: MIC CG 48 h): > 500 µM
- MIC (Trichosporon asahii 1188; 24 h, read-out: MIC TA 24 h): > 500 µM
- MIC (Trichosporon asahii 1188; 48 h, read-out: MIC TA 48 h): > 500 µM
- MIC ([9]; 24 h, read-out: MIC AF 24 h): > 500 µM
- MIC ([9]; 48 h, read-out: MIC AF 48 h): > 500 µM
- MIC ([10]; 24 h, read-out: MIC LC 24 h): > 500 µM
- MIC ([10]; 48 h, read-out: MIC LC 48 h): > 500 µM
- IC50 (HepG2 cells): 80.8 µM
- MIC KP-E 24 h [11]: >500 µM
- MIC KP-E 48 h [11]: >500 µM

SMILES: O=C(O)c1ccc(N=Cc2cc(I)ccc2O)cc1 [1e, 4-[(2-Hydroxy-5-iodobenzylidene)amino]benzoic acid]
- MIC [1, 12]: > 250 µM
- MIC [1, 13]: > 250 µM
- MIC [2, 14]: 250 µM (≈ 91.8 µg/mL)
- MIC [2, 15]: 250 µM (≈ 91.8 µg/mL)
- MIC [3, 16]: > 250 µM
- MIC [3, 17]: > 250 µM
- MIC [4, 18]: > 250 µM
- MIC [4, 19]: > 250 µM
- MIC [5, 20]: > 250 µM
- MIC [5, 21]: > 250 µM
- MIC [6, 22]: 500 µM (≈ 184 µg/mL)
- MIC [6, 23]: 500 µM (≈ 184 µg/mL)
- MIC [7, 24]: 250 µM (≈ 91.8 µg/mL)
- MIC [7, 25]: 250 µM (≈ 91.8 µg/mL)
- MIC [7, 26]: 250 µM (≈ 91.8 µg/mL)
- MIC [8, 27]: 250 µM (≈ 91.8 µg/mL)
- MIC [8, 28]: 250 µM (≈ 91.8 µg/mL)
- MIC [8, 29]: 500 µM (≈ 184 µg/mL)
- MIC (Candida tropicalis 156; 24 h, read-out: MIC CT 24 h): 125 µM (≈ 45.9 µg/mL)
- MIC (Candida tropicalis 156; 48 h, read-out: MIC CT 48 h): 125 µM (≈ 45.9 µg/mL)
- MIC (Candida krusei E28; 24 h, read-out: MIC CK 24 h): 62.5 µM (≈ 22.9 µg/mL)
- MIC (Candida krusei E28; 48 h, read-out: MIC CK 48 h): 62.5 µM (≈ 22.9 µg/mL)
- MIC (Candida glabrata 20/I; 24 h, read-out: MIC CG 24 h): 31.2 µM (≈ 11.5 µg/mL)
- MIC (Candida glabrata 20/I; 48 h, read-out: MIC CG 48 h): 31.2 µM (≈ 11.5 µg/mL)
- MIC (Trichosporon asahii 1188; 24 h, read-out: MIC TA 24 h): 62.5 µM (≈ 22.9 µg/mL)
- MIC (Trichosporon asahii 1188; 48 h, read-out: MIC TA 48 h): 62.5 µM (≈ 22.9 µg/mL)
- MIC ([9]; 24 h, read-out: MIC AF 24 h): 125 µM (≈ 45.9 µg/mL)
- MIC ([9]; 48 h, read-out: MIC AF 48 h): 125 µM (≈ 45.9 µg/mL)
- MIC ([10]; 24 h, read-out: MIC LC 24 h): > 125 µM
- MIC ([10]; 48 h, read-out: MIC LC 48 h): > 125 µM
- IC50 (HepG2 cells): 113 µM
- MIC KP-E 24 h [11]: >250 µM
- MIC KP-E 48 h [11]: >250 µM
